From patent US20210220340A1, “COMPOSITION FOR PREVENTION OR TREATMENT OF NEURODEGENERATIVE DISEASE” (THE ASAN FOUNDATION, priority 2018, published 2021)

Key:
cathepsin B = experiment: Lysosomal function activity in astrocytes: degree of hydrolysis of cathepsin B; assay type: cell-based, mouse; conditions: bafilomycin A1-treated mouse astrocytes
Description: (§1) Samples stained with enzymatic dyes such as cathepsin B and cathepsin L were administered into the cell culture to allow a reaction for 30 minutes, and changes in activity of lysosomes in cells were confirmed using a confocal microscope.
(§2) Astrocytes were stained with a fluorescence-tagged lysosomal protein, and the degrees of hydrolysis of cathepsin B and cathepsin L, which are lysosomal proteins, were analyzed.
(§3) FIG. 21 is a set of time-dependent confocal microscope images of mouse astrocytes, which are treated with bafilomycin A1, which is a vATPase inhibitor, to assess the degree of hydrolysis of cathepsin B (top) and cathepsin L (bottom).

cathepsin L = experiment: Lysosomal function activity in astrocytes: degree of hydrolysis of cathepsin L; assay type: cell-based, mouse; conditions: bafilomycin A1-treated mouse astrocytes
Description: as §1, §2, §3

5×FAD mice = experiment: Morris water maze test (hidden platform test and probe test) in Alzheimer's disease animal model; assay type: in vivo, mouse
Description: To confirm whether amlexanox (AMX; Z007) is effective even for animal models, an experiment was conducted using 5×FAD mice, which is one of the Alzheimer-type dementia animal models. Here, the 5×FAD mice, which is one of the Alzheimer-type dementia animal models, were provided in Korea and used.
Drug administration and behavioral evaluation were conducted on the same schedule as in FIG. […] Immediately after the end of the administration, a Morris water maze test, which is a behavioral experiment that can evaluate memory and learning ability, was conducted.
The Morris water maze test was performed as described in Behay. Brain Res. (155, 185-196) (refer to Behay. Brain Res., 155, 185-196). A water tank used in the water maze test is a cylindrical tank with a diameter of 90 cm and a height of 60 cm, and filled with water in which milk powder is diluted at 23±2[…] during a test period. In the tank, a transparent platform was installed 1 cm below the water surface, and four signs were placed outside the tank. The motion trajectory of a mouse was analyzed through a video tracking system (Smart3.0, Panlab, USA).
During the trial period, the mice were placed into the water tank at four randomly selected starting points toward the side where the platform was not shown. In each trial, an escape latency, which is the time to find the platform after the mouse is put into the water tank, was recorded, and when finding the platform, the mouse was allowed to stay on the platform for 10 seconds and then moved to a home cage. […] Each trial was performed four times a day for 5 days.
A probe test was conducted on the last […] of the test. After the platform was removed, the test was performed by allowing a mouse to swim in a water tank for 60 seconds and recording the time to first enter the location of the platform and how many times the mouse passed the location.

GFP-tagged mHttQ protein = experiment: GFP-mHttQ aggregation (GFP antibody); assay type: cell-based; conditions: cells injected with GFP-tagged mHttQ protein, AMX
Description: A GFP-tagged mHttQ protein was injected into cells, thereby confirming a pharmacological reaction mediated by AMX using a GFP antibody. The accumulation of mHttQ in cells through aggregation was confirmed by GFP expression.

[1] = 1 mg/kg and 2.5 mg/kg intraperitoneal, compared with Veh group

Structure (SMILES): CC(C)c1ccc2oc3nc(N)c(C(=O)O)cc3c(=O)c2c1 [amlexanox, 2-amino-7-isopropyl-5-oxo-5H-[1]benzopyrano[2,3-b] pyridine-3-carboxylic acid]
- time to restore lysosomal activity of cathepsin B to the original state (cathepsin B): ≤ 60 min
- time to restore lysosomal activity of cathepsin L to the original state (cathepsin L): ≤ 60 min
- number of passing the target point (5×FAD mice; [1]): increases
- time to find the target point (5×FAD mice; [1]): increase
- memory and learning ability (5×FAD mice; AMX-administered): improved
- GFP expression (aggregated GFP-mHttQ protein) (GFP-tagged mHttQ protein): decrease
